Measured values taken from patent US20240261465A1, “METHOD OF STOPPING BLEEDING USING NANOFIBROUS PEPTIDE HYDROGELS AS HEMOSTASIS AGENT” (KING ABDULLAH UNIVERSITY OF SCIENCE AND TECHNOLOGY, priority 2021, published 2024).
Non-standard residues stand in square brackets, D forms with d. No end group written: not given here. Cha = N[C@@H](CC1CCCCC1)C(=O)O

How the values were obtained:
plasma = assay: Blood coagulation test (aPTT), normal plasma; settings: peptide solution mixed with plasma, 37° C., control without peptides around 40 seconds
Experimental: In one embodiment, an application of the peptide-based hemostatic material in the present disclosure to the bleeding wound produces a coagulation time of less than 40 seconds. The coagulation time of normal plasma (without self-assembling peptides) and plasma with IVZK (SEQ ID NO. 2) or IVFK (SEQ ID NO. 1) hydrogels as initiators for clot formation was compared using a partial thromboplastin time (aPTT) test. The hemostatic properties of the peptides were evaluated by measuring the coagulation time after mixing the peptide solution with plasma. […] The coagulation time of the control (without self-assembling peptides) was around 40 seconds, which is within the normal range.
The aPTT test was performed in a coagulation meter MC 10 PLUS (MERLIN® Medical, Germany). First, 100 μL of plasma was incubated at 37° C., followed by adding 100 μL of a-PTT reagent. Then, the plasma-reagent mixture was incubated at 37° C. for 5 minutes (activation time). Finally, 100 μL of pre-warmed […] calcium chloride was added and time clot formation was recorded. In experimental group, 150 μL of plasma was pre-warmed and then 150 μL of peptide solution was added and the time was recorded. Each test was conducted at least three times.

[1] = Determination of gelation time by coagulation meter; assay type: physicochemical; settings: for gelation time, effect of temperature: 37° C. versus 25° C., FIGS. 1 and 2; for onset of gelation: different temperatures, different concentrations, FIGS. 3 and 4
Experimental: In one embodiment, the nanofiber formation of the self-assembling peptides is affected by concentration of the peptide solution (Luo, Z., S. Wang, and S. Zhang, Fabrication of self-assembling D-form peptide nanofiber scaffold d-EAK16 for rapid hemostasis. Biomaterials, 2011. 32(8): p. 2013-2020). The gelation time of different peptides at various concentrations was recorded using a coagulation meter. FIGS. 1 and 2 illustrate the gelation time of two peptides with different concentrations at two different temperatures (25° C., 37° C.). As shown in both FIGS. 1 and 2, as the concentration of peptide increases, the required time for gelation decreases.
In one embodiment, the peptide gelation is impacted by temperature. […] This effect can be explained by the increasing of kinetic energy which is helps in bond formation within molecules enabling the peptide solution to form gels faster at 37° C. than at 25° C.
In one embodiment, the gelation time is impacted by temperature.
In this study, onset of gelation was assessed using coagulation meter MC 10 PLUS (MERLIN® Medical, Germany). The peptide solution at different concentrations was used and checked under various conditions. For the coagulation experiment, 300 μl of peptide solution was added into a tube and placed in the preheated position for 50 seconds before adding 30 μl of PBS. The time at which the gel formed was then recorded. The temperature was chosen in advance and all solutions were incubated at the desired temperature before conducting the measurements.

Human platelets = assay: Surface coating and platelet adhesion; assay type: cell-based; settings: fluorescence microscopy images, FIG. 23; for platelet adhesion: coated surface
Source text: In one embodiment, the self-assembling peptides induce platelet adhenrance. In a preferred embodiment, the self-assembling peptides induce more platelet adhenrance than collagen. One important factor for accelerating blood coagulation could be by promoting the recruitment and adherence of platelets to the site of injury as these processes play a critical role in primary hemostasis (O'Shaughnessy, D. and R. Gill, 19 Cardiothoracic surgery. Practical Hemostasis and Thrombosis, 2009: p. 194). Therefore, platelet adherence induced by peptide hydrogels, type I collagen (positive control), and bovine serum albumin (BSA) (negative comtrol) was tested and compared. […] The scale bar in FIG. 23 is 100 μm. […] The level of platelet adhesion induced by peptide hydrogels, type I collagen (positive control) was also quantified, as shown in FIG. 24. According to FIG. 24, the level of platelet adhesion induced by peptide hydrogels is even higher than that of collagen. […] Therefore, our peptides induced platelet adhesion, a process that may help trigger the coagulation system.
The procedure was done as described previously (Chen, C., et al., Hydrogelation of the short self-assembling peptide 13QGK regulated by transglutaminase and use for rapid hemostasis. ACS applied materials & interfaces, 2016. 8(28): p. 17833-17841). Briefly, for surface coating. 200 μL of 6 mM IVFK (SEQ ID NO. 1), 6 mM IVZK (SEQ ID NO. 2), 0.5% (w/v), BSA (PBS, pH 7.4), and 0.01 mg/mL type I collagen (PBS, pH 7.4) solutions were added to the wells of a 96-well black plate and incubated at 4° C. for 24 h. The wells were washed three times with PBS after removing these solutions. Human platelets were isolated from whole human blood containing anticoagulant sodium citrate (0.38%, w/v) as described previously(Chen, C., et al., Hydrogelation of the short self-assembling peptide 13QGK regulated by transglutaminase and use for rapid hemostasis. ACS applied materials & interfaces, 2016. 8(28): p. 17833-17841). The blood collection was approved by IBEC (18IBEC143). Briefly, platelet-rich plasma (PRP) was collected by centrifugation at 200×g for 20 min at 25° C. Then, PRP was diluted at a 1:1 ratio with PBS and subjected to second centrifugation at 800×g for 12 min at 25° C. The isolated platelets were washed three times with Tyrode's buffer (Hepes 20 mM, glucose […], BSA 1 mg/mL, NaH2PO4 3.3 mM, NaCl 137 mM, KCl 2.7 mM), followed by staining with calcein-AM (1 μg/mL) for 30 min in the dark at room temperature to stained platelets. After washing twice with PBS, the stained platelets were added into the coated wells and incubated for 1 h at 37° C. Subsequently, the supernatants were removed, and the unbound platelets were discarded by washing three times with PBS. The fluorescence of adherent platelets was measured by fluorescence microscopy.

Substance | coagulation (clotting) time (plasma) | gelation time, effect of temperature [1] | onset of gelation [1] | platelet adhesion (Human platelets) | level of platelet adhesion relative to collagen (positive control) (Human platelets)
IVZK: tetrameric self-assembling ultrashort peptide IVZK (SEQ ID NO. 2), forms nanofibrous hydrogel (IV[Cha]K) | around 5 seconds | faster gelation at 37 °C | occurs faster with the increase of temperature | considerable platelet adhesion | comparable to that on the surface of collagen
bovine serum albumin [BSA, reference compound] | – | – | – | little platelet adhesion | –
IVFK: tetrameric self-assembling ultrashort peptide IVFK (SEQ ID NO. 1), forms nanofibrous hydrogel | around 5 seconds | faster gelation at 37 °C | occurs faster with the increase of temperature | considerable platelet adhesion | comparable to that on the surface of collagen
